Calls of active or inactive are those of the source. No cut-off for these calls is given here.
Legend:
[1] = AUC (0 to t) in Sprague-Dawley rat at 20 mg/kg, iv measured upto 12 hrs by LC-MS/MS analysis; format: ADME, organism-based; conditions: in vivo
MC-38 [2] = assay: Induction of PD-L1 expression in mouse MC38 cells measured after 24 hrs incubation by immunofluorescence staining analysis; format: functional, cell-based; conditions: dose 1-4 µM
Mus musculus [3] = assay: (§1) Immunomodulatory effect in C57BL/6 mouse allografted mouse MC38 cells assessed as increase in tumor infiltrating lymphocytes by measuring increase in CD8+ T helper cells in mouse spleen at 50 mg/kg, po treated 5 days after cell inoculation 19 th day by flow cytometry analysis (reference value: 13.6%); format: functional; conditions: time 15 day
HeLa = assay: Antiproliferative activity against human HeLa cells measured after 48 hrs incubation by MTT assay relative to control; format: functional, cell-based
[4] = Half life in Sprague-Dawley rat at 20 mg/kg, po measured upto 12 hrs by LC-MS/MS analysis; format: ADME, organism-based; conditions: in vivo
[5] = Toxicity in C57BL/6 mouse allografted with mouse MC38 cells assessed as urea nitrogen (BUN) level in serum at 50 mg/kg, po treated 5 days after cell inoculation 19 th day; format: organism-based; conditions: in vivo, 360 h, time 15 day
[6] = Toxicity in C57BL/6 mouse allografted with mouse MC38 cells assessed as pathological changes in kidney at 50 mg/kg, po treated 5 days after cell inoculation 19 th day by hematoxylin and eosin analysis; format: organism-based; conditions: in vivo, 360 h, time 15 day
Mus musculus [7] = assay: as §1, with “spleen in presence of NP19 PD-L1 inhibitor” for “spleen”; format: functional; conditions: time 15 day
[8] = MRT (0 to infinity) in Sprague-Dawley rat at 20 mg/kg, iv measured upto 12 hrs by LC-MS/MS analysis; format: ADME, organism-based; conditions: in vivo
[9] = Volume of distribution at steady state in Sprague-Dawley rat at 20 mg/kg, iv measured upto 12 hrs by LC-MS/MS analysis; format: ADME, organism-based; conditions: in vivo, read-out: Vdss
[10] = Clearance in Sprague-Dawley rat at 20 mg/kg, po measured upto 12 hrs by LC-MS/MS analysis; format: ADME, organism-based; conditions: in vivo
MC-38 [11] = assay: In vivo antitumor activity against mouse MC38 cells allografted in C57BL/6 mouse assessed as decrease in […] positive cells in tumor in presence of NP19 PD-L1 inhibitor at 50 mg/kg, po treated 5 days after cell inoculation 19 th day by immunofluorescence analysis; format: functional, organism-based; conditions: time 15.0 day
MC-38 [12] = assay: Induction of mitochondrial membrane damage in mouse MC38 cells assessed as increase in JC-1 monomers by measuring green fluorescence at 2 uM measured after 48 hrs (reference value: 3.13%); format: functional
Mus musculus [13] = assay: (§2) Immunomodulatory effect in C57BL/6 mouse allografted mouse MC38 cells assessed as increase in tumor infiltrating lymphocytes by measuring increase in […] in mouse blood at 50 mg/kg, po treated 5 days after cell inoculation 19 th day by flow cytometry analysis (reference value: 0.35%); format: functional; conditions: time 15 day
[14] = Toxicity in C57BL/6 mouse allografted with mouse MC38 cells assessed as pathological changes in spleen at 50 mg/kg, po treated 5 days after cell inoculation 19 th day by hematoxylin and eosin analysis; format: organism-based; conditions: in vivo, 360 h, time 15 day
Mus musculus [15] = assay: Induction of PD-L1 expression in tumor in C57BL/6 mouse allografted with mouse MC38 cells at 50 mg/kg, po treated 5 days after cell inoculation 19 th day by immunofluorescence analysis; format: functional, organism-based; conditions: time 15.0 day
[16] = Cmax in Sprague-Dawley rat at 20 mg/kg, iv measured upto 12 hrs by LC-MS/MS analysis; format: ADME, organism-based; conditions: in vivo
Mus musculus [17] = assay: Induction of acetylated H3 level in tumor in C57BL/6 mouse allografted with mouse MC38 cells at 50 mg/kg, po treated 5 days after cell inoculation 19 th day by immunofluorescence analysis; format: functional, organism-based; conditions: time 15.0 day
[18] = Clearance in Sprague-Dawley rat at 20 mg/kg, iv measured upto 12 hrs by LC-MS/MS analysis; format: ADME, organism-based; conditions: in vivo
MC-38 [19] = assay: Induction of mitochondrial membrane damage in mouse MC38 cells assessed as increase in JC-1 monomers by measuring green fluorescence at 8 uM measured after 48 hrs (reference value: 3.13%); format: functional
[20] = Toxicity in C57BL/6 mouse allografted with mouse MC38 cells assessed as aspartate aminotransferase (AST) level in serum at 50 mg/kg, po treated 5 days after cell inoculation 19 th day; format: organism-based; conditions: in vivo, 360 h, time 15 day
[21] = Tmax in Sprague-Dawley rat at 20 mg/kg, po measured upto 12 hrs by LC-MS/MS analysis; format: ADME, organism-based; conditions: in vivo
[22] = MRT (0 to t) in Sprague-Dawley rat at 20 mg/kg, po measured upto 12 hrs by LC-MS/MS analysis; format: ADME, organism-based; conditions: in vivo
Mus musculus [23] = assay: as §1, with “lymph nodes in presence of NP19 PD-L1 inhibitor” for “spleen”, “20.3%)” for “13.6%)”; format: functional; conditions: time 15 day
Mus musculus [24] = assay: as §2, with “blood in presence of NP19 PD-L1 inhibitor” for “blood”; format: functional; conditions: time 15 day
[25] = Toxicity in C57BL/6 mouse allografted with mouse MC38 cells assessed as pathological changes in liver at 50 mg/kg, po treated 5 days after cell inoculation 19 th day by hematoxylin and eosin analysis; format: organism-based; conditions: in vivo, 360 h, time 15 day
[26] = Oral bioavailability in Sprague-Dawley rat at 20 mg/kg measured upto 12 hrs by LC-MS/MS analysis; format: ADME, organism-based; conditions: in vivo
Mus musculus [27] = assay: as §1, with “CD4+” for “CD8+”, “10.8%)” for “13.6%)”; format: functional; conditions: time 15 day
Mus musculus [28] = assay: Immunomodulatory effect in C57BL/6 mouse allografted with mouse MC38 cells assessed as increase in tumor infiltrating lymphocytes by measuring increase in CD3+ CD4+ cells at 50 mg/kg, po treated 5 days after cell inoculation 19 th day by flow cytometry analysis; format: functional, organism-based; conditions: time 15.0 day
Mus musculus [29] = assay: as §1, with “lymph nodes” for “spleen”, “20.3%)” for “13.6%)”; format: functional; conditions: time 15 day
Mus musculus [30] = assay: as §1, with “tumor in presence of NP19 PD-L1 inhibitor” for “mouse spleen”, “2.32%)” for “13.6%)”; format: functional; conditions: time 15 day
MC-38 [31] = assay: Induction of apoptosis in mouse MC38 cells assessed as early apoptotic cells at 1 uM measured after 48 hrs by FITC/PI staining based flow cytometry (Rvb =12.27%); format: functional
MC-38 [32] = assay: In vivo antitumor activity against mouse MC38 cells allografted in C57BL/6 mouse assessed as increase in Tunel-positive cells in tumor at 50 mg/kg, po treated 5 days after cell inoculation 19 th day by immunofluorescence analysis; format: functional, organism-based; conditions: time 15.0 day
[33] = Acute toxicity in C57 mouse assessed as body weight change; conditions: in vivo
[34] = Tmax in Sprague-Dawley rat at 20 mg/kg, iv measured upto 12 hrs by LC-MS/MS analysis; format: ADME, organism-based; conditions: in vivo

In the case of `CCCNNC(=O)c1ccc(CNC(=O)c2cnc(-c3ccc4occc4c3)[nH]2)cc1`, the AUC(0-t) at 12 h [1] is reported as 1250 ng·h/mL, the Activity (MC-38 [2]) is reported as “Dose-dependent-effect” and the Activity (Mus musculus [3]) is reported as 14.1%. The IC50 (HeLa) was 2240 nM, the half-life [4] was 3.13 h and the Activity [5] was “Non-toxic”. For the same molecule, the Activity [6] was “Non-toxic”, the Activity (Mus musculus [7]) was 17.4% and the MRT inf [8] was 1.2 h. For the same molecule, the Vd [9] was 2.35 L/kg, the CL/F [10] was 259 mL/min/kg and the Activity (MC-38 [11]) was “Active”. The Activity (MC-38 [12]) was 8%, the Activity (Mus musculus [13]) was 0.56% and the Activity [14] was “Non-toxic”. The Activity (Mus musculus [15]) was “Active”, the Cmax [16] was 1210 ng/mL and the Activity (Mus musculus [17]) was “Active”. The CL [18] was 27.8 mL/min/kg, the Activity (MC-38 [19]) was 28.37% and the Activity [20] was “Non-toxic”. For the same molecule, the Tmax [21] was 0.88 h, the MRT last at 12 h [22] was 4.2 h and the Activity (Mus musculus [23]) was 31.6%. The Activity (Mus musculus [24]) was 0.83%, the Activity [25] was “Non-toxic” and the F [26] was 11.5%. The Activity (Mus musculus [27]) was 12.9%, the Activity (Mus musculus [28]) was “Active” and the Activity (Mus musculus [29]) was 29.6%. For the same molecule, the Activity (Mus musculus [30]) was 7.83%, the Activity (MC-38 [31]) was 11.97% and the Activity (MC-38 [32]) was “Active”. The LD50 [33] was > 200 mg/kg and the Tmax [34] was 4.8 min.
Work on `CCCNNC(=O)c1ccc(CNC(=O)c2cnc(-c3cccc4ccccc34)[nH]2)cc1` yielded an IC50 (HeLa) of 1310 nM and an Activity (MC-38 [31]) of 15.8%.

— ChEMBL document CHEMBL6121046, “Discovery of Novel Hydrazide-Based HDAC3 Inhibitors as Epigenetic Immunomodulators for Cancer Immunotherapy” (J Med Chem, 2025)
